Tested on: male Sprague-Dawley rats
Assay: Cold-Evoked Cardiovascular Pressor Responses (anesthetized rat cold pressor paradigm)
Type: in vivo
Conditions: HPbCD, 1.5 hours relative to Cold Challenge, Na salt form
Excerpt: Compounds of the formula (I) can be tested in animals and humans for their ability to mitigate cardiovascular pressor responses evoked by cold exposure. Seasonal environmental cooling is directly associated with elevated blood pressure and an increased incidence of coronary events in human populations worldwide (Barnett, A G et al. J Epidemiol Community Heath 2005, 59 551-557). Cold-evoked pulmonary hypertention and cold aggravation of chronic obstructive pulmonary disease are clinical indications susceptible to heightened cardiopulmonary sensitivity to cold (Marno P et al. Eur Respiratory Review 2006, 15 (101): 185.; Acikel M et al Int J of Cardiol (2004) 97: 187-192). The clinical cold pressor test assesses changes in blood pressure (BP) and cold pain perception during a 2-3 minute immersion of one hand into ice water. […] Compounds of the formula (I) can be studied in an anesthetized rat cold pressor paradigm to determine whether TRPM8 antagonism would interfere with the blood pressure pressor response to cold stimulation of the forepaws. Male Sprague-Dawley rats (300-450 g) anesthetized with sodium pentobarbital are instrumented with a jugular catheter and an indwelling carotid artery cannula connected to a pressure transducer. Vehicle (e.g. 20% HPbCD in sterile water) or test compound is infused (1 mL/kg) over one minute through the intravenous catheter. Ten minutes later both forelimbs are packed in crushed ice for 5 minutes. Alternatively, the test compound and vehicle treatments may be administered orally at an appropriated time prior to the surgical cannulations and cold challenge. Percent changes in mean arterial pressure in response to this cold stimulus are calculated for vehicle and test compound pretreatments. Percent inhibition attributed to treatment with test compound is then determined using the following formula: % Inhibition=[1−(cold evoked % change in BP post-test compound/cold evoked % change in BP post-vehicle)]×100.

SMILES: Cc1c(N(Cc2ccc(F)c(C(F)(F)F)c2)S(=O)(=O)c2ccc(C(=O)O)cc2)sc2ccccc12 [Compound 306, N-(3-Methyl-benzo[b]thiophen-2-yl)-N-(4-fluoro-3-trifluoromethyl-benzyl)-4-carboxy-benzenesulfonamide]
- Percent Inhibition, relative to vehicle (dose 1 p.o.): 16%
- Percent Inhibition, relative to vehicle (dose 3 p.o.): 41%
- Percent Inhibition, relative to vehicle (dose 10 p.o.): 62%
- Percent Inhibition, relative to vehicle (dose 30 p.o.): 75%

— patent publication US9434711B2 (Janssen Pharmaceutica, NV, priority 2007, dated 2016)
